Our source for the MIC values is US20220177508A1, “C10-Cyclic Substituted 13-Membered Macrolides and Uses Thereof” (Zikani Therapeutics, Inc., priority 2018, published 2022).

Converted amounts (≈) assume the structure as drawn.

Format in all cases: cell-based
One experiment concerns E. coli MP-4. The experiment in a line: Broth dilution MIC determination (CLSI), E. coli MP-4. The settings on record: Escherichia coli, MP4; strain MP-4, broth dilution; read-out: MIC E. coli MP-4. A general note: In broth dilution the organism is exposed to a series of concentrations in liquid medium.
The test system of a further experiment is P. aeruginosa MP-3. The experiment in a line: Broth dilution MIC determination (CLSI), P. aeruginosa MP-3. The settings on record: Pseudomonas aeruginosa, MP3; strain MP-3, broth dilution.
The test system of the next experiment is S. aureus MP-12. The experiment is described as follows: Broth dilution MIC determination (CLSI), S. aureus MP-12. The settings on record: Staphylococcus aureus, MP12; strain MP-12, broth dilution.
Another experiment concerns A. baumannii MP-15. The experiment in a line: Broth dilution MIC determination (CLSI), A. baumannii MP-15. Particulars: Acinetobacter baumannii, MP15; strain MP-15, broth dilution; read-out: MIC A. baumanii MP-15.
The next experiment relates to K. pneumoniae MP-546. The experiment in a line: Broth dilution MIC determination (CLSI), K. pneumoniae MP-546. The settings on record: Klebsiella pneumoniae, MP546; strain MP-546, broth dilution.

One may read the MIC as the lowest concentration found to suppress growth. Consider `CCCN1CC([C@@H]2COC(=O)C(C)(C)C(=O)[C@H](C)[C@@H](O[C@@H]3O[C@H](C)C[C@H](N(C)C)[C@H]3O)[C@](C)(OC)C[C@@H](C)CN2C)C1` [Compound 76, (3R,6R,8R,9R,10R)-9-(((2S,3R,4S,6R)-4-(dimethylamino)-3-hydroxy-6-methyltetrahydro-2H-pyran-2-yl)oxy)-8-methoxy-4,6,8,10,12,12-hexamethyl-3-(1-propylazetidin-3-yl)-1-oxa-4-azacyclotridecane-11,13-dione], for which the MIC with E. coli MP-4 was under 4 µg/mL; against P. aeruginosa MP-3, over 32 µg/mL; in the experiment with S. aureus MP-12, 4 to 32 µg/mL (≈ 6.69 to 53.5 µM); with A. baumannii MP-15, over 32 µg/mL; against K. pneumoniae MP-546, under 4 µg/mL.
Turning to `CO[C@]1(C)C[C@@H](C)CN(C)[C@H](C2CCN(C(=O)CNCC(C)C)CC2)COC(=O)C(C)C(=O)[C@H](C)[C@H]1O[C@@H]1O[C@H](C)C[C@H](N(C)C)[C@H]1O` (stereo partly drawn) [Compound 107, (3R,6R,8R,9R,10R)-9-(((2S,3R,4S,6R)-4-(dimethylamino)-3-hydroxy-6-methyltetrahydro-2H-pyran-2-yl)oxy)-3-(1-(isobutylglycyl)piperidin-4-yl)-8-methoxy-4,6,8,10,12-pentamethyl-1-oxa-4-azacyclotridecane-11,13-dione], the minimum inhibitory concentration (MIC) in the experiment with E. coli MP-4 is 4 to 32 µg/mL (≈ 5.86 to 46.9 µM); against P. aeruginosa MP-3, over 32 µg/mL; with S. aureus MP-12, over 32 µg/mL; in the experiment with A. baumannii MP-15, over 32 µg/mL; against K. pneumoniae MP-546, 4 to 32 µg/mL (≈ 5.86 to 46.9 µM).
As for `CCN1C2CCC1CC([C@@H]1COC(=O)C(C)(C)C(=O)[C@H](C)[C@@H](O[C@@H]3O[C@H](C)C[C@H](N(C)C)[C@H]3O)[C@](C)(OC)C[C@@H](C)CN1C)C2` (stereo partly drawn) [Compound 15, (3R,6R,8R,9R,10R)-9-(((2S,3R,4S,6R)-4-(dimethylamino)-3-hydroxy-6-methyltetrahydro-2H-pyran-2-yl)oxy)-3-(8-ethyl-8-azabicyclo[3.2.1]octan-3-yl)-8-methoxy-4,6,8,10,12,12-hexamethyl-1-oxa-4-azacyclotridecane-11,13-dione], the MIC was under 4 µg/mL in the experiment with E. coli MP-4; over 32 µg/mL in the experiment on P. aeruginosa MP-3; 4 to 32 µg/mL (≈ 6.27 to 50.2 µM) against S. aureus MP-12; over 32 µg/mL in the experiment with A. baumannii MP-15; 4 to 32 µg/mL (≈ 6.27 to 50.2 µM) in the experiment with K. pneumoniae MP-546.
For `CO[C@]1(C)C[C@@H](C)CN(C)[C@H]([C@H]2CCCN(C(C)C)C2)COC(=O)C(C)(C)C(=O)[C@H](C)[C@H]1O[C@@H]1O[C@H](C)C[C@H](N(C)C)[C@H]1O` [Compound 104, (3R,6R,8R,9R,10R)-9-(((2S,3R,4S,6R)-4-(dimethylamino)-3-hydroxy-6-methyltetrahydro-2H-pyran-2-yl)oxy)-3-((S)-1-isopropylpiperidin-3-yl)-8-methoxy-4,6,8,10,12,12-hexamethyl-1-oxa-4-azacyclotridecane-11,13-dione], the MIC with E. coli MP-4 was under 4 µg/mL; against P. aeruginosa MP-3, over 32 µg/mL; against S. aureus MP-12, 4 to 32 µg/mL (≈ 6.39 to 51.1 µM); in the experiment with A. baumannii MP-15 it was over 32 µg/mL; against K. pneumoniae MP-546 it was 4 to 32 µg/mL (≈ 6.39 to 51.1 µM).
As to `CO[C@]1(C)C[C@@H](C)CN(C)[C@H](C2CN(CC(=O)NC(C)C)C2)COC(=O)C(C)(C)C(=O)[C@H](C)[C@H]1O[C@@H]1O[C@H](C)C[C@H](N(C)C)[C@H]1O` [Compound 36, 2-(3-((3R,6R,8R,9R,10R)-9-(((2S,3R,4S,6R)-4-(dimethylamino)-3-hydroxy-6-methyltetrahydro-2H-pyran-2-yl)oxy)-8-methoxy-4,6,8,10,12,12-hexamethyl-11,13-dioxo-1-oxa-4-azacyclotridecan-3-yl)azetidin-1-yl)-N-isopropylacetamide], the MIC was 4 to 32 µg/mL (≈ 6.11 to 48.9 µM) in the experiment with E. coli MP-4; over 32 µg/mL in the experiment with P. aeruginosa MP-3; over 32 µg/mL with S. aureus MP-12; over 32 µg/mL in the experiment on A. baumannii MP-15; 4 to 32 µg/mL (≈ 6.11 to 48.9 µM) with K. pneumoniae MP-546.
Take `CO[C@]1(C)C[C@@H](C)CN(C)[C@@H](C2CCN(C[C@@H](N)CO)CC2)CO[C@@H](O)C(C)(C)C(=O)[C@H](C)[C@H]1O[C@@H]1O[C@H](C)C[C@H](N(C)C)[C@H]1O` [Compound 199]: the minimal inhibitory concentration (MIC) is under 4 µg/mL in the experiment with E. coli MP-4; over 32 µg/mL in the experiment with P. aeruginosa MP-3; 4 to 32 µg/mL (≈ 6.07 to 48.6 µM) against S. aureus MP-12; over 32 µg/mL with A. baumannii MP-15; under 4 µg/mL with K. pneumoniae MP-546.
Take `CO[C@]1(C)C[C@@H](C)CN(C)[C@H](C2CCCCC2)COC(=O)C(C)(C)C(=O)[C@H](C)[C@H]1O[C@@H]1O[C@H](C)C[C@H](N(C)C)[C@H]1O` [Compound 88, (3R,6R,8R,9R,10R)-3-cyclohexyl-9-(((2S,3R,4S,6R)-4-(dimethylamino)-3-hydroxy-6-methyltetrahydro-2H-pyran-2-yl)oxy)-8-methoxy-4,6,8,10,12,12-hexamethyl-1-oxa-4-azacyclotridecane-11,13-dione]: the MIC in the experiment with E. coli MP-4, with P. aeruginosa MP-3, against S. aureus MP-12, with A. baumannii MP-15 and in the experiment with K. pneumoniae MP-546 was over 32 µg/mL in each case.
For the molecule `CO[C@]1(C)C[C@@H](C)CN(C)[C@@H]([C@H]2CC[C@H](N(C)C(=O)CN(C)C)CC2)COC(=O)C(C)(C)C(=O)[C@H](C)[C@H]1O[C@@H]1O[C@H](C)C[C@H](N(C)C)[C@H]1O` [Compound 82, 2-(dimethylamino)-N-((1S,4r)-4-((3S,6R,8R,9R,10R)-9-(((2S,3R,4S,6R)-4-(dimethylamino)-3-hydroxy-6-methyltetrahydro-2H-pyran-2-yl)oxy)-8-methoxy-4,6,8,10,12,12-hexamethyl-11,13-dioxo-1-oxa-4-azacyclotridecan-3-yl)cyclohexyl)-N-methylacetamide], the minimal inhibitory concentration (MIC) with E. coli MP-4, in the experiment with P. aeruginosa MP-3, with S. aureus MP-12, with A. baumannii MP-15 and against K. pneumoniae MP-546 was over 32 µg/mL in each case.
`CO[C@]1(C)C[C@@H](C)CN(C)[C@H](C2CCNCC2)[C@H](C)OC(=O)C(C)(C)C(=O)[C@H](C)[C@H]1O[C@@H]1O[C@H](C)C[C@H](N(C)C)[C@H]1O` [Compound 47, (2S,3R,6R,8R,9R,10R)-9-(((2S,3R,4S,6R)-4-(dimethylamino)-3-hydroxy-6-methyltetrahydro-2H-pyran-2-yl)oxy)-8-methoxy-2,4,6,8,10,12,12-heptamethyl-3-(piperidin-4-yl)-1-oxa-4-azacyclotridecane-11,13-dione]: the MIC is 4 to 32 µg/mL (≈ 6.69 to 53.5 µM) with E. coli MP-4; over 32 µg/mL in the experiment on P. aeruginosa MP-3; over 32 µg/mL against S. aureus MP-12; over 32 µg/mL in the experiment on A. baumannii MP-15; over 32 µg/mL against K. pneumoniae MP-546.
As to `CO[C@]1(C)C[C@@H](C)CN(C(=O)OCc2ccccc2)[C@H](C2CCN(C(C)C)CC2)COC(=O)C(C)(C)C(=O)[C@H](C)[C@H]1O[C@@H]1O[C@H](C)C[C@H](N(C)C)[C@H]1O` [Compound 118, Benzyl (3R,6R,8R,9R,10R)-9-(((2S,3R,4S,6R)-4-(dimethylamino)-3-hydroxy-6-methyltetrahydro-2H-pyran-2-yl)oxy)-3-(1-isopropylpiperidin-4-yl)-8-methoxy-6,8,10,12,12-pentamethyl-11,13-dioxo-1-oxa-4-azacyclotridecane-4-carboxylate], the minimal inhibitory concentration (MIC) with E. coli MP-4, against P. aeruginosa MP-3, against S. aureus MP-12, in the experiment with A. baumannii MP-15 and in the experiment on K. pneumoniae MP-546 was over 32 µg/mL throughout.
Regarding `CO[C@]1(C)C[C@@H](C)CN(C)[C@@H]([C@H]2CCCN(C(C)C)C2)COC(=O)C(C)(C)C(=O)[C@H](C)[C@H]1O[C@@H]1O[C@H](C)C[C@H](N(C)C)[C@H]1O` [Compound 56, (3S,6R,8R,9R,10R)-9-(((2S,3R,4S,6R)-4-(dimethylamino)-3-hydroxy-6-methyltetrahydro-2H-pyran-2-yl)oxy)-3-((S)-1-isopropylpiperidin-3-yl)-8-methoxy-4,6,8,10,12,12-hexamethyl-1-oxa-4-azacyclotridecane-11,13-dione], the MIC in the experiment on E. coli MP-4, in the experiment on P. aeruginosa MP-3, against S. aureus MP-12, with A. baumannii MP-15 and against K. pneumoniae MP-546 was over 32 µg/mL in each case.
With `CO[C@]1(C)C[C@@H](C)CN(C)[C@H](c2ccncc2)COC(=O)C(C)(C)C(=O)[C@H](C)[C@H]1O[C@@H]1O[C@H](C)C[C@H](N(C)C)[C@H]1O` [Compound 19, (3R,6R,8R,9R,10R)-9-(((2S,3R,4S,6R)-4-(dimethylamino)-3-hydroxy-6-methyltetrahydro-2H-pyran-2-yl)oxy)-8-methoxy-4,6,8,10,12,12-hexamethyl-3-(pyridin-4-yl)-1-oxa-4-azacyclotridecane-11,13-dione], the MIC with E. coli MP-4, in the experiment with P. aeruginosa MP-3, in the experiment on S. aureus MP-12, in the experiment with A. baumannii MP-15 and in the experiment with K. pneumoniae MP-546 was over 32 µg/mL throughout.
In the case of `CO[C@]1(C)C[C@@H](C)CN(C)[C@H](C2CC3CCC(C2)N3C(=O)CN(C)C)COC(=O)C(C)(C)C(=O)[C@H](C)[C@H]1O[C@@H]1O[C@H](C)C[C@H](N(C)C)[C@H]1O` (stereo partly drawn) [Compound 6, (3R,6R,8R,9R,10R)-9-(((2S,3R,4S,6R)-4-(dimethylamino)-3-hydroxy-6-methyltetrahydro-2H-pyran-2-yl)oxy)-3-(8-(dimethylglycyl)-8-azabicyclo[3.2.1]octan-3-yl)-8-methoxy-4,6,8,10,12,12-hexamethyl-1-oxa-4-azacyclotridecane-11,13-dione], the minimum inhibitory concentration (MIC) in the experiment on E. coli MP-4 is 4 to 32 µg/mL (≈ 5.76 to 46 µM); against P. aeruginosa MP-3 it was over 32 µg/mL; with S. aureus MP-12, over 32 µg/mL; with A. baumannii MP-15, over 32 µg/mL; in the experiment with K. pneumoniae MP-546 it was 4 to 32 µg/mL (≈ 5.76 to 46 µM).
For the molecule `CO[C@]1(C)C[C@@H](C)CN[C@H](C2CCN(C(C)C)CC2)COC(=O)C(C)(C)C(=O)[C@H](C)[C@H]1O[C@@H]1O[C@H](C)C[C@H](N(C)C)[C@H]1O` [Compound 7, (3R,6R,8R,9R,10R)-9-(((2S,3R,4S,6R)-4-(Dimethylamino)-3-hydroxy-6-methyltetrahydro-2H-pyran-2-yl)oxy)-3-(1-isopropylpiperidin-4-yl)-8-methoxy-6,8,10,12,12-pentamethyl-1-oxa-4-azacyclotridecane-11,13-dione], the MIC with E. coli MP-4 was under 4 µg/mL; against P. aeruginosa MP-3 it was over 32 µg/mL; in the experiment on S. aureus MP-12, 4 to 32 µg/mL (≈ 6.54 to 52.3 µM); with A. baumannii MP-15, over 32 µg/mL; in the experiment with K. pneumoniae MP-546 it was under 4 µg/mL.
